# Assay results reported in publication PMC9706563, “Development of Macrocyclic PRMT5–Adaptor Protein Interaction Inhibitors” (Journal of Medicinal Chemistry, 2022).
# Square brackets hold non-standard residues; d marks the D form. Peptide text beside a SMILES is read from it. * marks the point of attachment. FITC = O=C1OC2(c3ccc(O)cc3Oc3cc(O)ccc32)c2ccc(NC(=S)*)cc21; Phe(4-guanidino) = N=C(N)Nc1ccc(C[C@H](N)C(=O)O)cc1; Phe(3-CF3) = N[C@@H](Cc1cccc(C(F)(F)F)c1)C(=O)O; Phe(F5) = N[C@@H](Cc1c(F)c(F)c(F)c(F)c1F)C(=O)O; Phe(4-COOH) = N[C@@H](Cc1ccc(C(=O)O)cc1)C(=O)O; Bpa = N[C@@H](Cc1ccc(C(=O)c2ccccc2)cc1)C(=O)O; Phe(2-Ph) = N[C@@H](Cc1ccccc1-c1ccccc1)C(=O)O; Phe(3-Cl) = N[C@@H](Cc1cccc(Cl)c1)C(=O)O; 1Nal = N[C@@H](Cc1cccc2ccccc12)C(=O)O; 2Nal = N[C@@H](Cc1ccc2ccccc2c1)C(=O)O; Gla = N[C@@H](CC(C(=O)O)C(=O)O)C(=O)O; Phe(2-F) = N[C@@H](Cc1ccccc1F)C(=O)O; Phe(2-I) = N[C@@H](Cc1ccccc1I)C(=O)O; hPhe = N[C@@H](CCc1ccccc1)C(=O)O; 2Pal = N[C@@H](Cc1ccccn1)C(=O)O; Cit = NC(=O)NCCC[C@H](N)C(=O)O; Dab = NCC[C@H](N)C(=O)O; Abu = CC[C@H](N)C(=O)O; Alloc = C=CCOC(=O)*
# Target: T1, PRMT5-MEP50 (Homo sapiens, UniProt O14744)
# T1 construct: The compounds were tested by means of FP with the full-length PRMT5-MEP50 complex; made in house
# Test: Direct binding fluorescence polarization (FP) assay of FITC-labeled peptides
# Conditions: PRMT5-MEP50 Kd (µM), supplementary CSV
# Experimental: The assay was performed in a buffer of 50 mM 4-(2-hydroxyethyl)-1-piperazineethanesulfonic acid (HEPES), 250 mM NaCl, 1 mM tris(2-carboxyethyl)phosphine (TCEP), and 0.01% (v/v) Tween 20, pH 8.0, in black, 384-well plates with a total volume of 10 μL per well. […] The plates were incubated at room temperature for 1 to 2 h and analyzed on a plate reader using 485 nm excitation and 535 nm emission wavelength. The assay was performed in triplicate.
# T1 sequence (O14744 whole entry): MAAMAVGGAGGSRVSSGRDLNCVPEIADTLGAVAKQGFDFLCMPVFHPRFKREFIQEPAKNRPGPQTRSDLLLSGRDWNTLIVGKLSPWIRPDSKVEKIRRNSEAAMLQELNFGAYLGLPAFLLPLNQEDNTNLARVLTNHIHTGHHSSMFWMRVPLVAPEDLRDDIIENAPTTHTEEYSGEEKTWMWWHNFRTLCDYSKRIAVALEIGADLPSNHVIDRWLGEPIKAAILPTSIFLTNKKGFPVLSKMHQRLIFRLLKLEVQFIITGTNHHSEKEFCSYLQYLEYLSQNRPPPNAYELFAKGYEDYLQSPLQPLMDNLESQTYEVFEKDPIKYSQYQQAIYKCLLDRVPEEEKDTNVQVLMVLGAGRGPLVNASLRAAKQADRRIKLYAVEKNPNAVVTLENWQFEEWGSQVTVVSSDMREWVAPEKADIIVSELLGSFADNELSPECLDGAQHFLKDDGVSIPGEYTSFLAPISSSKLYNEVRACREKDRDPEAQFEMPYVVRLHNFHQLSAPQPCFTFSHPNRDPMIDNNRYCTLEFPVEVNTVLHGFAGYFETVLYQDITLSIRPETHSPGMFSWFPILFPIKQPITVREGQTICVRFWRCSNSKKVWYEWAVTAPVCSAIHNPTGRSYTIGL
# T1 sequence (Q9BQA1 whole entry partner): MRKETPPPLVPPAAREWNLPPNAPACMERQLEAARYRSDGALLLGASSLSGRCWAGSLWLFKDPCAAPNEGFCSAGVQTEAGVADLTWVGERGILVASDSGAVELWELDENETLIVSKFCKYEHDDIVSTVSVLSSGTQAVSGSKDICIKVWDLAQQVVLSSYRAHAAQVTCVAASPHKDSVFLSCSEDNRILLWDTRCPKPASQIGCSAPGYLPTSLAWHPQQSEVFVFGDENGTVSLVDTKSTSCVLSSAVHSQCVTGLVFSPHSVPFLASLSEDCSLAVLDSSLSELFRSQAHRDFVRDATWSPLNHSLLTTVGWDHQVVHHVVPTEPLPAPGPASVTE
row,SMILES,Kd
1,CC(=O)N[C@H](C(=O)N1CCC[C@H]1C(=O)NCC(=O)N[C@@H](CCC(N)=O)C(=O)N[C@@H](Cc1ccc(C(=O)c2ccccc2)cc1)C(=O)N[C@@H](CC(=O)O)C(=O)N[C@@H](CC(=O)O)C(=O)N[C@@H](C)C(=O)N[C@@H](CC(=O)O)C(=O)N[C@@H](CCCCNC(=S)Nc1ccc2c(c1)C(=O)OC21c2ccc(O)cc2Oc2cc(O)ccc21)C(N)=O)C(C)C [Compound S23] (Ac-VPGQ[Bpa]DDADK(FITC)-NH2),0.752 ± 0.044 µM

# Same assay, conditions: supplementary CSV, read-out: PRMT5-MEP50 Kd
row,SMILES,Kd
1,C=CCOC(=O)NCC[C@H](NC(=O)CNC(=O)[C@@H]1CCCN1C(=O)[C@@H](NC(C)=O)C(C)C)C(=O)N[C@@H](Cc1ccccc1)C(=O)N[C@@H](CC(=O)O)C(=O)N[C@@H](CC(=O)O)C(=O)N[C@@H](C)C(=O)N[C@@H](CC(=O)O)C(=O)N[C@@H](CCCCNC(=S)Nc1ccc2c(c1)C(=O)OC21c2ccc(O)cc2Oc2cc(O)ccc21)C(N)=O [Compound S10] (Ac-VPG[Dab](Alloc)FDDADK(FITC)-NH2),> 1 µM
2,CC(=O)N[C@H](C(=O)N1CCC[C@H]1C(=O)NCC(=O)N[C@@H](CCC(N)=O)C(=O)N[C@@H](Cc1ccccc1F)C(=O)N[C@@H](CC(=O)O)C(=O)N[C@@H](CC(=O)O)C(=O)N[C@@H](C)C(=O)N[C@@H](CC(=O)O)C(=O)N[C@@H](CCCCNC(=S)Nc1ccc2c(c1)C(=O)OC21c2ccc(O)cc2Oc2cc(O)ccc21)C(N)=O)C(C)C [Compound S12] (Ac-VPGQ[Phe(2-F)]DDADK(FITC)-NH2),> 1 µM
3,CC(=O)N[C@H](C(=O)N1CCC[C@H]1C(=O)NCC(=O)N[C@@H](CCC(N)=O)C(=O)N[C@@H](Cc1c(F)c(F)c(F)c(F)c1F)C(=O)N[C@@H](CC(=O)O)C(=O)N[C@@H](CC(=O)O)C(=O)N[C@@H](C)C(=O)N[C@@H](CC(=O)O)C(=O)N[C@@H](CCCCNC(=S)Nc1ccc2c(c1)C(=O)OC21c2ccc(O)cc2Oc2cc(O)ccc21)C(N)=O)C(C)C [Compound S13] (Ac-VPGQ[Phe(F5)]DDADK(FITC)-NH2),> 1 µM
4,CC(=O)N[C@H](C(=O)N1CCC[C@H]1C(=O)NCC(=O)N[C@@H](CCC(N)=O)C(=O)N[C@@H](Cc1ccccc1I)C(=O)N[C@@H](CC(=O)O)C(=O)N[C@@H](CC(=O)O)C(=O)N[C@@H](C)C(=O)N[C@@H](CC(=O)O)C(=O)N[C@@H](CCCCNC(=S)Nc1ccc2c(c1)C(=O)OC21c2ccc(O)cc2Oc2cc(O)ccc21)C(N)=O)C(C)C [Compound S14] (Ac-VPGQ[Phe(2-I)]DDADK(FITC)-NH2),> 1 µM
5,CC(=O)N[C@H](C(=O)N1CCC[C@H]1C(=O)NCC(=O)N[C@@H](CCC(N)=O)C(=O)N[C@@H](Cc1cccc(C(F)(F)F)c1)C(=O)N[C@@H](CC(=O)O)C(=O)N[C@@H](CC(=O)O)C(=O)N[C@@H](C)C(=O)N[C@@H](CC(=O)O)C(=O)N[C@@H](CCCCNC(=S)Nc1ccc2c(c1)C(=O)OC21c2ccc(O)cc2Oc2cc(O)ccc21)C(N)=O)C(C)C [Compound S16] (Ac-VPGQ[Phe(3-CF3)]DDADK(FITC)-NH2),> 1 µM
6,CC(=O)N[C@H](C(=O)N1CCC[C@H]1C(=O)NCC(=O)N[C@@H](CCC(N)=O)C(=O)N[C@@H](Cc1ccccn1)C(=O)N[C@@H](CC(=O)O)C(=O)N[C@@H](CC(=O)O)C(=O)N[C@@H](C)C(=O)N[C@@H](CC(=O)O)C(=O)N[C@@H](CCCCNC(=S)Nc1ccc2c(c1)C(=O)OC21c2ccc(O)cc2Oc2cc(O)ccc21)C(N)=O)C(C)C [Compound S17] (Ac-VPGQ[2Pal]DDADK(FITC)-NH2),> 1 µM
7,CC(=O)N[C@H](C(=O)N1CCC[C@H]1C(=O)NCC(=O)N[C@@H](CCC(N)=O)C(=O)N[C@@H](Cc1ccc(N=C(N)N)cc1)C(=O)N[C@@H](CC(=O)O)C(=O)N[C@@H](CC(=O)O)C(=O)N[C@@H](C)C(=O)N[C@@H](CC(=O)O)C(=O)N[C@@H](CCCCNC(=S)Nc1ccc2c(c1)C(=O)OC21c2ccc(O)cc2Oc2cc(O)ccc21)C(N)=O)C(C)C [Compound S20] (Ac-VPGQ[Phe(4-guanidino)]DDADK(FITC)-NH2),> 1 µM
8,CC(=O)N[C@H](C(=O)N1CCC[C@H]1C(=O)NCC(=O)N[C@@H](CCC(N)=O)C(=O)N[C@@H](Cc1ccccc1-c1ccccc1)C(=O)N[C@@H](CC(=O)O)C(=O)N[C@@H](CC(=O)O)C(=O)N[C@@H](C)C(=O)N[C@@H](CC(=O)O)C(=O)N[C@@H](CCCCNC(=S)Nc1ccc2c(c1)C(=O)OC21c2ccc(O)cc2Oc2cc(O)ccc21)C(N)=O)C(C)C [Compound S22] (Ac-VPGQ[Phe(2-Ph)]DDADK(FITC)-NH2),> 1 µM
9,CC(=O)N[C@H](C(=O)N1CCC[C@H]1C(=O)NCC(=O)N[C@@H](CCC(N)=O)C(=O)N[C@@H](Cc1ccc2ccccc2c1)C(=O)N[C@@H](CC(=O)O)C(=O)N[C@@H](CC(=O)O)C(=O)N[C@@H](C)C(=O)N[C@@H](CC(=O)O)C(=O)N[C@@H](CCCCNC(=S)Nc1ccc2c(c1)C(=O)OC21c2ccc(O)cc2Oc2cc(O)ccc21)C(N)=O)C(C)C [Compound S24] (Ac-VPGQ[2Nal]DDADK(FITC)-NH2),> 1 µM
10,CC(=O)N[C@H](C(=O)N1CCC[C@H]1C(=O)NCC(=O)N[C@@H](CCC(N)=O)C(=O)N[C@@H](Cc1cccc2ccccc12)C(=O)N[C@@H](CC(=O)O)C(=O)N[C@@H](CC(=O)O)C(=O)N[C@@H](C)C(=O)N[C@@H](CC(=O)O)C(=O)N[C@@H](CCCCNC(=S)Nc1ccc2c(c1)C(=O)OC21c2ccc(O)cc2Oc2cc(O)ccc21)C(N)=O)C(C)C [Compound S25] (Ac-VPGQ[1Nal]DDADK(FITC)-NH2),> 1 µM

# Continued, values first:
row,Kd,SMILES
1,> 1 µM,CC(=O)N[C@@H](CC(=O)O)C(=O)N1CCC[C@H]1C(=O)NCC(=O)N[C@@H](CCC(N)=O)C(=O)N[C@@H](Cc1ccccc1)C(=O)N[C@@H](CC(=O)O)C(=O)N[C@@H](CC(=O)O)C(=O)N[C@@H](C)C(=O)N[C@@H](CC(=O)O)C(=O)N[C@@H](CCCCNC(=S)Nc1ccc2c(c1)C(=O)OC21c2ccc(O)cc2Oc2cc(O)ccc21)C(N)=O [Compound S6] (Ac-DPGQFDDADK(FITC)-NH2)
2,0.695 ± 0.078 µM,CC(=O)N[C@@H](CCC(=O)O)C(=O)N1CCC[C@H]1C(=O)NCC(=O)N[C@@H](CCC(N)=O)C(=O)N[C@@H](Cc1ccccc1)C(=O)N[C@@H](CC(=O)O)C(=O)N[C@@H](CC(=O)O)C(=O)N[C@@H](C)C(=O)N[C@@H](CC(=O)O)C(=O)N[C@@H](CCCCNC(=S)Nc1ccc2c(c1)C(=O)OC21c2ccc(O)cc2Oc2cc(O)ccc21)C(N)=O [Compound S7] (Ac-EPGQFDDADK(FITC)-NH2)
3,> 1 µM,CC(=O)N[C@H](C(=O)N1CCC[C@H]1C(=O)NCC(=O)N[C@@H](CC(N)=O)C(=O)N[C@@H](Cc1ccccc1)C(=O)N[C@@H](CC(=O)O)C(=O)N[C@@H](CC(=O)O)C(=O)N[C@@H](C)C(=O)N[C@@H](CC(=O)O)C(=O)N[C@@H](CCCCNC(=S)Nc1ccc2c(c1)C(=O)OC21c2ccc(O)cc2Oc2cc(O)ccc21)C(N)=O)C(C)C [Compound S8] (Ac-VPGNFDDADK(FITC)-NH2)
4,> 1 µM,CC(=O)N[C@H](C(=O)N1CCC[C@H]1C(=O)NCC(=O)N[C@@H](CCN)C(=O)N[C@@H](Cc1ccccc1)C(=O)N[C@@H](CC(=O)O)C(=O)N[C@@H](CC(=O)O)C(=O)N[C@@H](C)C(=O)N[C@@H](CC(=O)O)C(=O)N[C@@H](CCCCNC(=S)Nc1ccc2c(c1)C(=O)OC21c2ccc(O)cc2Oc2cc(O)ccc21)C(N)=O)C(C)C [Compound S9] (Ac-VPG[Dab]FDDADK(FITC)-NH2)
5,> 1 µM,CC(=O)N[C@H](C(=O)N1CCC[C@H]1C(=O)NCC(=O)N[C@@H](CCCNC(N)=O)C(=O)N[C@@H](Cc1ccccc1)C(=O)N[C@@H](CC(=O)O)C(=O)N[C@@H](CC(=O)O)C(=O)N[C@@H](C)C(=O)N[C@@H](CC(=O)O)C(=O)N[C@@H](CCCCNC(=S)Nc1ccc2c(c1)C(=O)OC21c2ccc(O)cc2Oc2cc(O)ccc21)C(N)=O)C(C)C [Compound S11] (Ac-VPG[Cit]FDDADK(FITC)-NH2)
6,> 1 µM,CC(=O)N[C@H](C(=O)N1CCC[C@H]1C(=O)NCC(=O)N[C@@H](CCC(N)=O)C(=O)N[C@@H](Cc1cccc(Cl)c1)C(=O)N[C@@H](CC(=O)O)C(=O)N[C@@H](CC(=O)O)C(=O)N[C@@H](C)C(=O)N[C@@H](CC(=O)O)C(=O)N[C@@H](CCCCNC(=S)Nc1ccc2c(c1)C(=O)OC21c2ccc(O)cc2Oc2cc(O)ccc21)C(N)=O)C(C)C [Compound S15] (Ac-VPGQ[Phe(3-Cl)]DDADK(FITC)-NH2)
7,> 1 µM,CC(=O)N[C@H](C(=O)N1CCC[C@H]1C(=O)NCC(=O)N[C@@H](CCC(N)=O)C(=O)N[C@@H](Cc1ccc(O)cc1)C(=O)N[C@@H](CC(=O)O)C(=O)N[C@@H](CC(=O)O)C(=O)N[C@@H](C)C(=O)N[C@@H](CC(=O)O)C(=O)N[C@@H](CCCCNC(=S)Nc1ccc2c(c1)C(=O)OC21c2ccc(O)cc2Oc2cc(O)ccc21)C(N)=O)C(C)C [Compound S18] (Ac-VPGQYDDADK(FITC)-NH2)
8,> 1 µM,CC(=O)N[C@H](C(=O)N1CCC[C@H]1C(=O)NCC(=O)N[C@@H](CCC(N)=O)C(=O)N[C@@H](Cc1ccc(C(=O)O)cc1)C(=O)N[C@@H](CC(=O)O)C(=O)N[C@@H](CC(=O)O)C(=O)N[C@@H](C)C(=O)N[C@@H](CC(=O)O)C(=O)N[C@@H](CCCCNC(=S)Nc1ccc2c(c1)C(=O)OC21c2ccc(O)cc2Oc2cc(O)ccc21)C(N)=O)C(C)C [Compound S19] (Ac-VPGQ[Phe(4-COOH)]DDADK(FITC)-NH2)
9,> 1 µM,CC(=O)N[C@H](C(=O)N1CCC[C@H]1C(=O)NCC(=O)N[C@@H](CCC(N)=O)C(=O)N[C@@H](CCc1ccccc1)C(=O)N[C@@H](CC(=O)O)C(=O)N[C@@H](CC(=O)O)C(=O)N[C@@H](C)C(=O)N[C@@H](CC(=O)O)C(=O)N[C@@H](CCCCNC(=S)Nc1ccc2c(c1)C(=O)OC21c2ccc(O)cc2Oc2cc(O)ccc21)C(N)=O)C(C)C [Compound S21] (Ac-VPGQ[hPhe]DDADK(FITC)-NH2)
10,> 1 µM,CC(=O)N[C@H](C(=O)N1CCC[C@H]1C(=O)NCC(=O)N[C@@H](CCC(N)=O)C(=O)N[C@@H](Cc1ccccc1)C(=O)N[C@@H](CC(=O)O)C(=O)N[C@@H](CC(C(=O)O)C(=O)O)C(=O)N[C@@H](C)C(=O)N[C@@H](CC(=O)O)C(=O)N[C@@H](CCCCNC(=S)Nc1ccc2c(c1)C(=O)OC21c2ccc(O)cc2Oc2cc(O)ccc21)C(N)=O)C(C)C [Compound S26] (Ac-VPGQFD[Gla]ADK(FITC)-NH2)
11,> 1 µM,CC[C@H](NC(=O)[C@H](CC(=O)O)NC(=O)[C@H](CC(=O)O)NC(=O)[C@H](Cc1ccccc1)NC(=O)[C@H](CCC(N)=O)NC(=O)CNC(=O)[C@@H]1CCCN1C(=O)[C@@H](NC(C)=O)C(C)C)C(=O)N[C@@H](CC(=O)O)C(=O)N[C@@H](CCCCNC(=S)Nc1ccc2c(c1)C(=O)OC21c2ccc(O)cc2Oc2cc(O)ccc21)C(N)=O [Compound S27] (Ac-VPGQFDD[Abu]DK(FITC)-NH2)
